{"source": "patent US20170209499A1", "about": "“Propolis and Extracts Thereof for the Treatment of Skin Cancers and Improvement of Skin Health” (Manuka Health New Zealand Limited, priority 2014, published 2017)", "type_in_all_cases": "cell-based", "key": {"[1]": {"test_system": "human melanoma cell line A-2058", "experiment": "MTT cell proliferation assay, human melanoma cell line A-2058", "conditions": "for Mean OD: MTT Optical Density at 570 nm", "from_the_text": "This example describes the in vitro bioassay used for determining the anti-proliferative activity of test compounds and cyclodextrin-encapsulated propolis complexes against human skin cancer cell lines. The present example tests anti-proliferative efficacy against the human melanoma cell line, A-2058. The cyclodextrin-encapsulated propolis complexes tested are those described in Example 1. The NZ propolis was the same propolis used to manufacture the cyclodextrin complexes CD1-CD3. The Brazilian Green propolis was the same propolis used to manufacture the cyclodextrin complex CD4. The test samples were dissolved in 15% Ethanol (EtOH)/HBSS to make a working solution, which was then diluted 10 times to give a final concentration in the cells of 50 μg/ml unless indicated otherwise.\n(§1) The three human skin cancer cell lines were: • 1) Human Melanoma cell line (A-2058). • 2) Human Epidermoid (Squamous) Carcinoma cell line (A-431). • 3) Human Basal Cell Carcinoma cell line (TE 354.T).\n(§2) The cell lines were revived from cryostorage and cultured in the presence of the test and reference samples. An MIT assay was then performed on the cultures to determine the effect of the samples on the cell viability and proliferation. The percentage standard error of the mean was assessed and extreme outliers were removed if the SEM%>15. Preliminary statistical significance was assessed with an independent Student t-test at α<0.05 (with and without outliers). The methodology was based on the procedures reported by: • Ahn, N G, Campbell J S (1993). […] Proc Natl Acad Sci. 90: 5143-5147. • Galan-Cobo, A et al (2014). Functional inhibition of aquaporin-3 with a gold-based compound induces blockage of cell proliferation. J Cellul. Physiol. 229: 1787-1801. • Roomi, M W, Kalinovsky, J et al (2013) Effect of a nutrient mixture on matrix metalloproteinase-9 dimers in various human cancer cell lines. Inter 3 Oncol. 44: 936-942. • Huang, H C, Lin, M K et al (2013). Cardenolides and bufadienolide glycosides from Kalanchoe tubiflora and evaluation of cytotoxicity. Planta Medica. 79: 1362-1369. • Tilli, C M L J, Stavast-Kooy, A J W et al (2003). The garlic-derived organosulfur component ajoene decreases basal cell carcinoma tumor size by inducing apoptosis. Arch Dermatol Res. 295: 117-123.\n• 1. Human melanoma cell line (A-2058, ATCC CRL11147) was obtained from ATCC, Bethesda, Md., USA. • 2. Human squamous (epidermoid) carcinoma cell line (A-431, ATCC CRL1555) was obtained from ATCC, Bethesda, Md. USA. • 3. Human basal cell carcinoma cell line (TE 354.T, ATCC CRL7762) was obtained from ATCC, Bethesda, Md., USA. • 4. Dulbecco's Modified Eagle's Medium (DMEM) was obtained from GIBCO (12100-038). 10% Foetal Bovine Serum (FBS), 100 U/ml Penicillin and […] Streptomycin were added before use. • 5. Penicillin-streptomycin solution, stored at −20° C. consisting of 10000 units/ml penicillin and 10 mg/ml streptomycin in 0.9% NaCl was obtained from Sigma (#P-0781). • 6. Trypsin-EDTA solution consisting of 0.25% Trypsin/EDTA was obtained from Invitrogen (#15400054). • 7. Phosphate buffered saline (PBS) was prepared in-house. • 8. Hanks Balanced Salt Solution (HBSS), stored at 4° C. was obtained from GIBCO (#14185-052). • 9. Foetal Bovine Serum (FBS) stored at −20° C. was obtained from GIBCO (#10091-148). • 10. MTT Reagent, 100 mg/vial, was obtained from Sigma (M-2128) and then dissolved in PBS at 10 mg/ml and stored at −20° C. A 5 mg/ml MTT solution was prepared in PBS and stored at 4° C. as the working solution. • 11. MU lysis buffer: 10% sodium dodecyl sulphate (SDS)/45% Dimethyl Formamide was prepared by dissolving 20 g SDS in 100 ml of double-distilled water (DDW), and then adding 90 ml of Dimethyl Formamide to the solution. The pH was adjusted to 4.7 by glacial acetic acid, and DDW added up to a final volume of 200 ml. • 12. 5-Fluorouracil (5-FU) was supplied by Sigma (F-6627). Three working solutions were prepared at 19.5 μg/ml. 6.5 μg/ml and 1.95 μg/ml dissolved in 15% Ethanol/HBSS. […]"}, "[2]": {"test_system": "human basal carcinoma cell line TE 354.T", "experiment": "MTT cell proliferation assay, human basal cell carcinoma cell line TE 354.T", "conditions": "200 μg/ml; for % inhibition / inhibition at 200 µg/mL: 24 hr incubation, vs cells only; for Mean OD: MTT Optical Density at 570 nm; for inhibition at 200 µg/mL: Homo sapiens", "procedure": "as §1, §2\n(§3) • 1. Human melanoma cell line (A-2058, ATCC CRL11147) was obtained from ATCC, Bethesda, Md., USA. • 2. Human squamous (epidermoid) carcinoma cell line (A-431, ATCC CRL1555) was obtained from ATCC, Bethesda, Md. USA. • 3. Human basal cell carcinoma cell line (TE 354.T, ATCC CRL7762) was obtained from ATCC, Bethesda, Md., USA. • 4. Dulbecco's Modified Eagle's Medium (DMEM) was obtained from GIBCO (12100-038). 10% Foetal Bovine Serum (FBS), 100 U/ml Penicillin and […] Streptomycin were added before use. • 5. Penicillin-streptomycin solution, stored at −20° C. consisting of 10000 units/ml penicillin and 10 mg/ml streptomycin in 0.9% NaCl was obtained from Sigma (#P-0781). • 6. Trypsin-EDTA solution consisting of 0.25% Trypsin/EDTA was obtained from Invitrogen (#15400054). • 7. Phosphate buffered saline (PBS) was prepared in-house. • 8. Hanks Balanced Salt Solution (HBSS), stored at 4° C. was obtained from GIBCO (#14185-052). • 9. Foetal Bovine Serum (FBS) stored at −20° C. was obtained from GIBCO (#10091-148). • 10. MTT Reagent, 100 mg/vial, was obtained from Sigma (M-2128) and then dissolved in PBS at 10 mg/ml and stored at −20° C. A 5 mg/ml MTT solution was prepared in PBS and stored at 4° C. as the working solution. • 11. MU lysis buffer: 10% sodium dodecyl sulphate (SDS)/45% Dimethyl Formamide was prepared by dissolving 20 g SDS in 100 ml of double-distilled water (DDW), and then adding 90 ml of Dimethyl Formamide to the solution. The pH was adjusted to 4.7 by glacial acetic acid, and DDW added up to a final volume of 200 ml. • 12. 5-Fluorouracil (5-FU) was supplied by Sigma (F-6627). Three working solutions were prepared at 19.5 μg/ml. 6.5 μg/ml and 1.95 μg/ml dissolved in 15% Ethanol/HBSS. Final concentrations were 1.95 μg/ml (15 μM), 0.65 μg/ml (5 μM) and 0.195 μg/ml (1.5 μM).\n(§4) • 1. Each of the cell lines was revived from cryostorage. • 2. Following initial propagation using the media described above (Characterisation of Test System, and Medium Preparation), the cell culture was subcultured using trypsin-EDTA. The media was removed and 5ml of the trypsin-EDTA solution added and incubated at 37° C. for 5 min or until all the cells had detached. The trypsin was neutralised by the addition of an equal volume of the relevant medium and centrifugation of the suspension at 300 g (1200 rpm) for 5 min at 4° C. • 3. […]"}, "[3]": {"test_system": "human epidermoid cancer cell line A-431", "experiment": "MTT cell proliferation assay, human epidermoid (squamous) carcinoma cell line A-431", "conditions": "A-431, 200 μg/ml; for % inhibition / inhibition at 200 µg/mL: 24 hr incubation, vs cells only; for Mean OD: MTT Optical Density at 570 nm; for inhibition at 200 µg/mL: Homo sapiens", "procedure": "as §1, §2, §3, §4"}, "[4]": {"conditions": "Homo sapiens, A2058, 24 h, A-2058, final conc. 200 μg/ml, 24 hr incubation, vs cells only"}, "[5]": {"conditions": "A-2058, final conc. 200 μg/ml, 24 hr incubation, vs cells only"}}, "note": "“And” between values parts separate entries of the source, which are not always exact repeats. Equal values may be shown once."}
{"smiles": "O=C(O)/C=C/C=C/c1ccccc1", "note": "[5-phenyl penta-2,4-dienoic acid, 5-phenylpenta-2,4-dienoic acid]", "values": [{"measurement": "Mean OD", "setting": "[1]; A-2058, 200 μg/ml", "result": 0.1548}, {"measurement": "inhibition at 200 µg/mL", "setting": "[1]; [4]", "result": 23.1, "unit": "%"}]}
{"smiles": "O=C1C[C@@H](c2ccccc2)Oc2cc(O)cc(O)c21", "note": "[pinocembrin]", "values": [{"measurement": "Mean OD", "setting": "[1]; A-2058, 200 μg/ml", "result": 0.0013}, {"measurement": "% inhibition", "setting": "[1]; [5]", "result": "completely killed all the melanoma cells"}, {"measurement": "inhibition at 200 µg/mL", "setting": "[1]; [4]", "result": 99.3, "unit": "%"}]}
{"smiles": "CC(=O)OC1C(=O)c2c(O)cc(O)cc2OC1c1ccccc1", "note": "(stereo not drawn) [Pinobanksin-3-o-acetate, pinobanksin-3-acetate]", "values": [{"measurement": "Mean OD", "setting": "[1]; A-2058, 200 μg/ml", "result": 0.0777}, {"measurement": "% inhibition", "setting": "[1]; [5]", "result": 61.38, "unit": "%"}, {"measurement": "inhibition at 200 µg/mL", "setting": "[1]; [4]", "result": 61.4, "unit": "%"}, {"measurement": "% inhibition", "setting": "[2]", "result": "weak inhibitors of proliferation"}, {"measurement": "Mean OD", "setting": "[2]", "result": 0.2416}, {"measurement": "inhibition at 200 µg/mL", "setting": "[2]", "result": 10.4, "unit": "%"}, {"measurement": "% inhibition", "setting": "[3]", "result": "very strong inhibitors of proliferation"}, {"measurement": "Mean OD", "setting": "[3]", "result": 0.0253}, {"measurement": "inhibition at 200 µg/mL", "setting": "[3]", "result": 90.4, "unit": "%"}]}
{"smiles": "C=C(C)CCOC(=O)/C=C/c1ccc(O)c(O)c1", "note": "[Complex 3M3BC, 3-methyl-3-butenyl caffeate]", "values": [{"measurement": "Mean OD", "setting": "[1]; A-2058, 20 μg/ml", "result": 0.1070}, {"measurement": "% inhibition", "setting": "[1]; A-2058, final conc. 20 μg/ml, 24 hr incubation, vs cells only", "result": 46.85, "unit": "%"}, {"measurement": "inhibition at 20 µg/mL", "setting": "[1]; Homo sapiens, A2058, 24 h, A-2058, final conc. 20 μg/ml, 24 hr incubation, vs cells only", "result": 46.8, "unit": "%"}, {"measurement": "% inhibition", "setting": "[2]", "result": "weak inhibitors of proliferation"}, {"measurement": "Mean OD", "setting": "[2]", "result": 0.2245}, {"measurement": "inhibition at 200 µg/mL", "setting": "[2]", "result": 16.7, "unit": "%"}, {"measurement": "% inhibition", "setting": "[3]", "result": "very strong inhibitors of proliferation"}, {"measurement": "Mean OD", "setting": "[3]", "result": 0.0475}, {"measurement": "inhibition at 200 µg/mL", "setting": "[3]", "result": 81.9, "unit": "%"}]}
{"smiles": "COc1cc(O)c2c(=O)cc(-c3ccccc3)oc2c1", "note": "[Tectochrysin]", "values": [{"measurement": "Mean OD", "setting": "[1]; A-2058, 200 μg/ml", "result": 0.0272}, {"measurement": "% inhibition", "setting": "[1]; [5]", "result": "86.5% and 86.48%"}]}
{"smiles": "O=C(/C=C/c1ccc(O)c(O)c1)OCCc1ccccc1", "note": "[CAPE, caffeic acid phenethyl ester, reference compound]", "values": [{"measurement": "Mean OD", "setting": "[1]; A-2058, 200 μg/ml", "result": 0.1018}, {"measurement": "% inhibition", "setting": "[1]; [5]", "result": 49.43, "unit": "%"}, {"measurement": "inhibition at 200 µg/mL", "setting": "[1]; [4]", "result": 49.4, "unit": "%"}]}
{"smiles": "COc1cc(/C=C/C(=O)OCc2ccccc2)ccc1O", "note": "[Benzyl ferulate]", "values": [{"measurement": "Mean OD", "setting": "[1]; A-2058, 200 μg/ml", "result": 0.0040}, {"measurement": "% inhibition", "setting": "[1]; [5]", "result": "completely killed all the melanoma cells"}, {"measurement": "inhibition at 200 µg/mL", "setting": "[1]; [4]", "result": 98, "unit": "%"}]}
{"smiles": "O=C(O)/C=C/c1ccc(O)cc1", "note": "[p-coumaric acid, reference compound]", "values": [{"measurement": "Mean OD", "setting": "[1]; A-2058, 200 μg/ml", "result": 0.2136}, {"measurement": "inhibition at 200 µg/mL", "setting": "[1]; [4]", "result": 0, "unit": "%"}]}
